Data reported in PubChem BioAssay (NCI).
Where “and” joins values, the source holds several entries; their conditions need not be identical. Equal values may be shown once.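 Results reflect a 48-hour exposure of cells in 96-well plates to compound at five concentrations. The concentration for 50% growth inhibition is given as GI50. The concentration for full growth arrest is given as TGI.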

Assays:
Assay in all cases: NCI-60 cell line screen, 48 h
786-0 renal = tested on: 786-0 renal
A498 renal = tested on: A498 renal
A549 NSCLC = tested on: A549 NSCLC
ACHN renal = tested on: ACHN renal
BT-549 breast = tested on: BT-549 breast
CAKI-1 renal = tested on: CAKI-1 renal
CCRF-CEM leukemia = tested on: CCRF-CEM leukemia
COLO 205 colon = tested on: COLO 205 colon
DU-145 prostate = tested on: DU-145 prostate
EKVX NSCLC = tested on: EKVX NSCLC
HCC-2998 colon = tested on: HCC-2998 colon
HCT-116 colon = tested on: HCT-116 colon
HCT-15 colon = tested on: HCT-15 colon
HL-60(TB) leukemia = tested on: HL-60(TB) leukemia
HOP-62 NSCLC = tested on: HOP-62 NSCLC
HOP-92 NSCLC = tested on: HOP-92 NSCLC
HS 578T breast = tested on: HS 578T breast
HT29 colon = tested on: HT29 colon
IGROV1 ovarian = tested on: IGROV1 ovarian
K-562 leukemia = tested on: K-562 leukemia
KM12 colon = tested on: KM12 colon
LOX IMVI melanoma = tested on: LOX IMVI melanoma
M14 melanoma = tested on: M14 melanoma
MALME-3M melanoma = tested on: MALME-3M melanoma
MCF7 breast = tested on: MCF7 breast
MDA-MB-231 breast = tested on: MDA-MB-231 breast
MDA-MB-435 = tested on: MDA-MB-435
MDA-N = tested on: MDA-N
MOLT-4 leukemia = tested on: MOLT-4 leukemia
NCI-H226 lung = tested on: NCI-H226 lung
NCI-H23 lung = tested on: NCI-H23 lung
NCI-H460 lung = tested on: NCI-H460 lung
NCI-H522 lung = tested on: NCI-H522 lung
NCI/ADR-RES ovarian = tested on: NCI/ADR-RES ovarian
OVCAR-3 ovarian = tested on: OVCAR-3 ovarian
OVCAR-4 ovarian = tested on: OVCAR-4 ovarian
OVCAR-5 ovarian = tested on: OVCAR-5 ovarian
OVCAR-8 ovarian = tested on: OVCAR-8 ovarian
PC-3 prostate = tested on: PC-3 prostate
RPMI-8226 leukemia = tested on: RPMI-8226 leukemia
SF-268 CNS = tested on: SF-268 CNS
SF-295 CNS = tested on: SF-295 CNS
SF-539 CNS = tested on: SF-539 CNS
SK-MEL-2 melanoma = tested on: SK-MEL-2 melanoma
SK-MEL-28 melanoma = tested on: SK-MEL-28 melanoma
SK-MEL-5 melanoma = tested on: SK-MEL-5 melanoma
SK-OV-3 ovarian = tested on: SK-OV-3 ovarian
SN12C renal = tested on: SN12C renal
SNB-19 CNS = tested on: SNB-19 CNS
SNB-75 CNS = tested on: SNB-75 CNS
SR leukemia = tested on: SR leukemia
SW-620 colon = tested on: SW-620 colon
T-47D breast = tested on: T-47D breast
TK-10 renal = tested on: TK-10 renal
U251 CNS = tested on: U251 CNS
UACC-257 melanoma = tested on: UACC-257 melanoma
UACC-62 melanoma = tested on: UACC-62 melanoma
UO-31 renal = tested on: UO-31 renal

COc1ccc2c(c1OC)CN1CCc3cc4c(cc3C1C2)OCO4 (stereo not given)
TGI (786-0 renal): > 100 µM
TGI (A498 renal): > 100 µM
TGI (A549 NSCLC): > 100 µM
TGI (ACHN renal): > 100 µM
TGI (BT-549 breast): > 100 µM
TGI (CAKI-1 renal): > 100 µM
GI50 (CCRF-CEM leukemia): > 100 µM
TGI (CCRF-CEM leukemia): > 100 µM
TGI (COLO 205 colon): > 100 µM
TGI (DU-145 prostate): > 100 µM
TGI (EKVX NSCLC): > 100 µM
TGI (HCC-2998 colon): > 100 µM
TGI (HCT-116 colon): > 100 µM
TGI (HCT-15 colon): > 100 µM
TGI (HL-60(TB) leukemia): > 100 µM
TGI (HOP-62 NSCLC): > 100 µM
TGI (HOP-92 NSCLC): > 100 µM
TGI (HS 578T breast): > 100 µM
GI50 (HT29 colon): 30.8 µM and 76.1 µM
TGI (HT29 colon): > 100 µM
TGI (IGROV1 ovarian): > 100 µM
TGI (K-562 leukemia): > 100 µM
TGI (KM12 colon): > 100 µM
TGI (LOX IMVI melanoma): > 100 µM
TGI (M14 melanoma): > 100 µM
TGI (MALME-3M melanoma): > 100 µM
TGI (MCF7 breast): > 100 µM
TGI (MDA-MB-231 breast): > 100 µM
TGI (MDA-MB-435): > 100 µM
TGI (MDA-N): > 100 µM
TGI (MOLT-4 leukemia): > 100 µM
TGI (NCI-H226 lung): > 100 µM
TGI (NCI-H23 lung): > 100 µM
TGI (NCI-H460 lung): > 100 µM
TGI (NCI-H522 lung): > 100 µM
TGI (NCI/ADR-RES ovarian): > 100 µM
TGI (OVCAR-3 ovarian): > 100 µM
TGI (OVCAR-4 ovarian): > 100 µM
TGI (OVCAR-5 ovarian): > 100 µM
TGI (OVCAR-8 ovarian): > 100 µM
TGI (PC-3 prostate): > 100 µM
TGI (RPMI-8226 leukemia): > 100 µM
TGI (SF-268 CNS): > 100 µM
TGI (SF-295 CNS): > 100 µM
TGI (SF-539 CNS): > 100 µM
TGI (SK-MEL-2 melanoma): > 100 µM
TGI (SK-MEL-28 melanoma): > 100 µM
TGI (SK-MEL-5 melanoma): > 100 µM
TGI (SK-OV-3 ovarian): > 100 µM
TGI (SN12C renal): > 100 µM
TGI (SNB-19 CNS): > 100 µM
TGI (SNB-75 CNS): > 100 µM
TGI (SR leukemia): > 100 µM
TGI (SW-620 colon): > 100 µM
TGI (T-47D breast): > 100 µM
TGI (TK-10 renal): > 100 µM
TGI (U251 CNS): > 100 µM
TGI (UACC-257 melanoma): > 100 µM
TGI (UACC-62 melanoma): > 100 µM
TGI (UO-31 renal): > 100 µM
